# Test results taken from patent US11691992B2 (Anacor Pharmaceuticals, Inc., priority 2017, dated 2023).
# pIC50: −log10 of the molar value. Where two headings read alike, the source gives them in different places.
# What was measured:
# Assay type in all cases: cell-based
# [1] = tested on: bloodstream forms of T. b. rhodesiense STIB 900; test: T. brucei rhodesiense STIB 900 growth inhibition assay; conditions: Trypanosoma brucei, 72 h; for pIC50: bloodstream forms, Alamar Blue, protocol of Example 110, read-out: IC50: I Org. Growth T. brucei rhodesiense STIB 900, 3 d; for IC50: read-out: IC50: I Org. Growth T. brucei rhodesiense STIB 900, 3 d [uM]
# Excerpt: Example 110. T. brucei rhodesiense STIB 900 Growth Inhibition Assay
# The parasite strain used in this assay was isolated in 1982 from a human patient in Tanzania and after several mouse passages cloned and adapted to axenic culture conditions, ((a) Baltz, T., D. Baltz, C. Giroud, and J. Crockett. EMBO Journal, 1985, 4:1273-1277. (b) Thuita, J. K., S. M. Karanja, T. Wenzler, R. E. Mdachi, J. M. Ngotho, J. M. Kagira, R. Tidwell, and R. Brun. Acta Tropica 2008, 108:6-10.) Minimum Essential Medium (50 μl) supplemented with 25 mM HEPES, 1 g/l additional glucose, 1% MEM non-essential amino acids (100×), 0.2 mM 2-mercaptoethanol, 1 mM Na-pyruvate and 15% heat inactivated horse serum was added to each well of a 96-well microtiter plate. Serial drug dilutions of seven 3-fold dilution steps covering a range from 90 to 0.123 μg/ml were prepared. Then 10^4 bloodstream forms of T. b. rhodesiense STIB 900 in 50 μl was added to each well and the plate incubated at 37° C. under a 5% CO2 atmosphere for 72 h. 10 μl Alamar Blue (resazurin, 12.5 mg in 100 ml double-distilled water) was then added to each well and incubation continued for a further 2-4 h, (Raz, B., M. Iten, Y. Grether-Buhler, R. Kaminsky, and R. Brun. Acta Trap 1997, 68:139-47.) Then the plates were read with a Spectramax Gemini XS microplate fluorometer (Molecular Devices Cooperation, Sunnyvale, Calif., USA) using an excitation wave length of 536 nm and an emission wave length of 588 nm. Data were analyzed using the microplate reader software Softmax Pro (Molecular Devices Cooperation, Sunnyvale, Calif., USA).
# [2] = tested on: L. infantum MHOM/MA(BE)/67 amastigotes in primary peritoneal mouse macrophages; test: Leishmania infantum intracellular amastigote assay in mouse macrophages; conditions: Macrophage, 120 h; for pIC50: amastigotes in primary peritoneal mouse macrophages, 5 d, Giemsa staining, read-out: Inhibition of Organism Growth in Leishmania infantum MHOM/MA/BE/67, 5 d; for IC50: read-out: Inhibition of Organism Growth in Leishmania infantum MHOM/MA/BE/67, 5 d [uM]
# Procedure: Example 111. Leishmania infantum Intracellular Amastigote Assay in Mouse Macrophages
# L. infantum MHOM/MA(BE)/67 amastigotes were collected from the spleen of an infected donor hamster and used to infect primary peritoneal mouse macrophages. (Kaiser, M., Maes, L., Tadoori, L. P., Spangenberg, T., Ioset, J.-R. J. Biomol. Screen. 2015 20(5), 634-35.) To determine in vitro antileishmanial activity, 3×10^4 macrophages were seeded in each well of a 96-well plate. Culture medium was RPMI-1640 supplemented with L-glutamine (20 mM), 16.5 mM sodium hydrogen carbonate, and 10% fetal calf serum (FCS). After 2 d of outgrowth, 5×10^5 amastigotes/well were added and incubated for 2 h at 37° C. Prediluted samples to be tested were subsequently added, and the plates were further incubated for 5 d at 37° C. and 5% CO2. Total parasite burdens in the well were microscopically assessed after Giemsa staining and expressed as a percentage of the total burden in the blank controls without compound. In treated wells with high amastigote burdens, an overall estimate of the total burden per well was made without discrimination between the number of infected macrophages and the number of amastigotes per infected cell. In treated wells with low burdens, exact counting was performed. The 50% inhibitory concentrations (IC50s) were then generated for each dose response test using GraphPad Prism (GraphPad Software Inc., San Diego, Calif.) using the nonlinear regression (sigmoidal dose-response/variable slope) equation.
# [3] = tested on: IL3000 T. congolense (drug sensitive) strain; test: In vitro Alamar Blue 72 h drug sensitivity assay for T. congolense; conditions: Trypanosoma congolense; for pIC50: bloodstream form, 69 h + 3 h resazurin, 34° C., classes A-C, read-out: IC50: I Org. Growth T. congolense IL-3000, 3 d
# Procedure: Example 106. In Vitro Alamar Blue 72 h Drug Sensitivity Assay for T. congolense
# Compounds were tested in vitro for chemotherapeutic potency against the IL3000 T. congolense (drug sensitive) strain, using the Alamar Blue assay with several modifications. Test compounds were prepared as 10 mg/mL DMSO stocks for each assay run. Compounds were assayed in at least three separate, independent test runs and an 11-point dilution curve was used to determine the IC50 values. Bloodstream form trypanosomes were supported in HMI media containing 20% bovine serum and were incubated with test compounds for 69 h at 34° C. in a humidified atmosphere containing 5% CO2. Thereafter, 10 μL of Resazurin dye (12.5 mg in 100 mL of phosphate buffered saline, Sigma-Aldrich, Buchs, Switzerland) were added for an additional 3 h. Plates were then read using a fluorescent plate reader (Spectramax, Gemini XS, Bucher Biotec, Basel, Switzerland) using an excitation wavelength of 536 nm and an emission wavelength of 588 nm. Data points were averaged to generate sigmoidal dose-response curves and IC50 values were determined using Softmax Pro 5.2 software.
# [4] = tested on: TdTomato-modified T. cruzi (CL strain) in Vero cells; test: In vitro IC50 measurement of T. cruzi amastigote killing using TdTomato-modified T. cruzi (CL strain); conditions: Trypanosoma cruzi, 72 h, fluorescence, read-out: IC50: I Org. amastigote Growth T. cruzi CL TdTomato, 3 d
# Procedure: Example 112. In Vitro IC50 Measurement of T. cruzi Amastigote Killing Using TdTomato-Modified T. cruzi (CL Strain)
# The T. cruzi parasites used in this assay were genetically modified to express Td Tomato fluorescent protein. Vero cells (African green monkey kidney epithelial cells) were harvested from continuous cultures using trypsin and added to the inner 60 wells of 96-well Greiner Bio One plates (plate catalog #655090) at 200 ul/well of […]. Cells were allowed to adhere for 1 h before infection with T. cruzi. T. cruzi for infection were harvested from previously-infected Vero cells, washed, pelleted and resuspended at 5×10^6/mL. 50 uL of parasites were added to each well containing Vero cells. Compounds were prepared from 5 mM stock concentrations in DMSO to final concentrations in wells ranging from 5 uM to 5 nM. Wells were provided for negative controls, lacking compounds. Plates were placed into a 37° C. incubator for 20 min, then a “Day 0” reading was taken on a Synergy H4 plate reader to record initial fluorescence levels, at 544 (excitation) and 612 nm (emission). 96-well plates were placed in Tupperware containers with wet paper towels and incubated at 37° C. incubator for 72 h. After 72 h plates were reread (Day 3 reading) and data analyzed using Excel and/or Graphpad software. Day 0 fluorescence was subtracted from Day 3 to remove input parasite fluorescence. Growth curves are generated and 50% and 90% inhibitory concentrations are determined by nonlinear regression analysis.
# [5] = tested on: luciferase-expressing L. major parasites developing intracellularly inside RAW 264.7 macrophages; test: Leishmania major intracellular amastigote assay in RAW 264.7 macrophages (luciferase); conditions: RAW264.7, 96 hours, read-out: IC50: I Org. intracellular amastigote Growth L. major, 4 d
# Excerpt: Example 107. Assay for Leishmania major Intracellular Amastigote Assay in RAW 264.7 Macrophages
# The intracellular amastigote assay is a microtiter plate drug sensitivity assay that uses the activity of luciferase as a measure of proliferation of luciferase-expressing L. major parasites developing intracellularly inside RAW 264.7 macrophages in the presence of antileishmanial drugs or experimental compounds. (Buckner, F. S., and A. J. Wilson. Am J Prop Med Hyg, 2005, 72(5): 600-605.) As the activity of luciferase and its associated luminescence after addition of the substrate, luciferin, is relative to parasite growth, a test compound that inhibits the growth of the parasite will result in a lower luminescence. The luciferase-expressing L. major parasite used in this assay is genetically modified by adding the luciferase coding region to the pLEXSY-hyg2 vector (Jena Biosciences). The luciferase expression construct was created by digesting the luciferase coding region (1.66 kbp) of pGL3-Basic (Promega) by using two restriction enzymes, NcoI/EagI, followed by electrophoretic separation of the luciferase coding region on a 1% agarose gel. The luciferase coding region was then ligated into pLEXSY-hyg2 vector (Jena Biosciences) which had previously been digested with NcoI/NotI. The vector was linearized with SwaI and subsequently gel purified prior to transfection into L. major parasites. Transfections were carried out by electroporation at 480V, 13Ω, and 500 μF (0.4 mL of 1×10^8 parasites/mL, and 0.1 mL of 10 μg DNA). Selection for transfectants was then carried out using hygromycin B (100 μg/mL). RAW 264.7 macrophages were cultured in DMEM media (ATCC Cat #30-2002) supplemented with heat-inactivated 10% FBS (Invitrogen Cat #10438-034). To begin the assay, macrophages were harvested from culture by removing all spent media, adding in 10 mL fresh media, scraping cells, and counted using Trypan Blue. The cells were resuspended in DMEM/10% HIFBS media at 2.0×10^5 cells/mL, and then dispensed in a volume of 50 μL to yield a final concentration of 10,000 macrophages/well in 384 well tissue-culture treated sterile white plates (Nunc Cat #12-565-343) using a Tecan EVO Freedom robotics system. The plates were then incubated at 37° C. overnight in 5% CO2 atmosphere for 24 hours. After overnight incubation, the media was removed from each well using the Tecan EVO Freedom robot, and L. major promastigotes were added to each well and allowed to invade the RAW macrophages. Promastigotes were cultured in Schneider's medium (Invitrogen Cat #11720-067) supplemented with 20% heat inactivated FBS. Metacyclic stage promastigotes provide the best invasion for this assay, and cultures should be grown to increase the percentage of metacyclic promastigotes for best results. Promastigotes were harvested from culture, counted, suspended at 2×10^6 promastigotes/mL in DMEM/HIFBS media, and 100,000 promastigotes were dispensed per well in a volume of 50 μL. After overnight incubation, the media was removed from each well using the Tecan Freedom EVO robot, and each well was subsequently washed three times with 40 μF of fresh DMEM/HIFBS medium to remove all extracellular promastigotes. After the third wash, 69.2 μF of DMEM/HIFBS medium was added to each well using the Tecan EVO Freedom robot. Drug plates were prepared with the Tecan EVO Freedom using sterile 96 well plates containing twelve duplicate two-fold serial dilutions of each test compound suspended in DMSO. 7.8 μF of diluted test compound was added to the 69.2 μF of media present in each well providing a 10 fold final dilution of compound. The final concentration range tested was 0.5 to 10,000 ng/ml for all assays. The plates were next incubated at 37° C. and 5% CO2 for 96 hours. After 96 hours of incubation, 7.5 μF of a luciferin solution (Caliper Fife Science) diluted to 150 μg/mF was added to each well, and the plates were incubated for 30 minutes at 37° C., in the dark. […]
smiles,measurement,setting,value
"Cc1cccc(-c2nc(C(=O)Nc3ccc4c(c3)B(O)OC4)nn2C)n1 [Example 74, N-(1-hydroxy-1,3-dihydrobenzo[c][1,2]oxaborol-6-yl)-1-methyl-5-(6-methylpyridin-2-yl)-1H-1,2,4-triazole-3-carboxamide]",pIC50,[1],6.52 to 7.00
same,pIC50,[2],> 5.52
"Cn1nc(-c2cccnc2)nc1C(=O)Nc1ccc2c(c1)B(O)OC2 [Example 78b, N-(1-hydroxy-1,3-dihydrobenzo[c][1,2]oxaborol-6-yl)-1-methyl-3-(pyridin-3-yl)-1H-1,2,4-triazole-5-carboxamide]",IC50,[1],0.31 to 10 µM
same,inhibition at 1 µM,"[3]; read-out: inhibition of T. congolense IL-3000 growth at a concentration of 1.0 μM (classes D, E)",> 75%
same,IC50,[2],20 to 100 µM
"Cn1nc(C(=O)Nc2ccc3c(c2)B(O)OC3)nc1-c1cccnc1 [Example 78a, N-(1-hydroxy-1,3-dihydrobenzo[c][1,2]oxaborol-6-yl)-1-methyl-5-(pyridin-3-yl)-1H-1,2,4-triazole-3-carboxamide]",IC50,[1],0.31 to 10 µM
same,IC50,[2],3 to 19.9 µM
"Cc1c(C(=O)Nc2ccc3c(c2)B(O)OC3)nnn1C1CCC1 [Example 42, 1-cyclobutyl-N-(1-hydroxy-1,3-dihydrobenzo[c][1,2]oxaborol-6-yl)-5-methyl-1H-1,2,3-triazole-4-carboxamide]",pIC50,[4],6.00 to 6.22
same,pIC50,[5],5.00 to 5.96
"COCCc1c(C(=O)Nc2ccc3c(c2)B(O)OC3)nnn1-c1ccccn1 [Example 52, N-(1-hydroxy-1,3-dihydrobenzo[c][1,2]oxaborol-6-yl)-5-(2-methoxyethyl)-1-(pyridin-2-yl)-1H-1,2,3-triazole-4-carboxamide]",pIC50,[3],6.52 to 7.00
same,pIC50,[4],5.00 to 5.96
"Cn1c(C(=O)Nc2ccc3c(c2)B(O)OC3)nnc1-c1ccccn1 [Example 73, N-(1-hydroxy-1,3-dihydrobenzo[c][1,2]oxaborol-6-yl)-4-methyl-5-(pyridine-2-yl)-4H-1,2,4-triazole-3-carboxamide]",pIC50,[1],6.52 to 7.00
same,pIC50,[2],4.70 to 5.52
"Cc1c(C(=O)Nc2ccc3c(c2)B(O)OC3C)nnn1-c1ccccc1 (centres unmarked) [Example 1, N-(1-hydroxy-1,3-dihydrobenzo[c][1,2]oxaborol-6-yl)-5-methyl-1-phenyl-1H-Example 11,2,3-triazole-4-carboxamide]",pIC50,[4],> 6.22
same,pIC50,[5],≥ 6.00
"CC(C)c1c(C(=O)Nc2ccc3c(c2)B(O)OC3)nnn1-c1ccccn1 [Example 51, N-(1-hydroxy-1,3-dihydrobenzo[c][1,2]oxaborol-6-yl)-5-isopropyl-1-(pyridin-2-yl)-1H-1,2,3-triazole-4-carboxamide]",pIC50,[3],6.52 to 7.00
same,pIC50,[4],6.00 to 6.22
